Holding throughout (assay): relative viability (nuclei count vs DMSO), 5 days (fraction); higher = more cells survive
Compound in the assay “CUDC-101 + OSI-027”: C#Cc1cccc(Nc2ncnc3cc(OC)c(OCCCCCCC(=O)NO)cc23)c1 [CUDC-101] + COc1cccc2cc(-c3nc([C@H]4CC[C@H](C(=O)O)CC4)n4ncnc(N)c34)[nH]c12 [OSI-027] (partner 0.5 µM)
A digest of the protocol:
(§1)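 Lung cancer cell lines, seeded in 1536-well plates, were treated the following day by pin tool with a single drug or with five library-drug doses (not always all listed) in √10 steps on top of a fixed anchor-drug dose. Cells were fixed and nuclei stained in one step after 5 days, and nuclei were counted. Relative viability is the nuclei count for treated wells divided by that for vehicle wells, reported as medians of duplicate plates.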

Compound in assay [1]: C1=CC=C2C(=C1)N=C(S2)C(C#N)C3=NC(=NC=C3)NCCC4=CN=CC=C4 + CCNC(=O)c1noc(-c2cc(C(C)C)c(O)cc2O)c1-c1ccc(CN2CCOCC2)cc1 [Luminespib] (partner 0.01 µM)
The gist of the method: as §1

Compound in the assay “NVP-TAE684 + Navitoclax”: COc1cc(N2CCC(N3CCN(C)CC3)CC2)ccc1Nc1ncc(Cl)c(Nc2ccccc2S(=O)(=O)C(C)C)n1 [NVP-TAE684] + CC1(C)CCC(c2ccc(Cl)cc2)=C(CN2CCN(c3ccc(C(=O)NS(=O)(=O)c4ccc(N[C@H](CCN5CCOCC5)CSc5ccccc5)c(S(=O)(=O)C(F)(F)F)c4)cc3)CC2)C1 [Navitoclax] (partner 0.5 µM)
A digest of the protocol: as §1

Compound in the assay “Vandetanib + Trametinib”: COc1cc2/c(=N/c3ccc(Br)cc3F)nc[nH]c2cc1OCC1CCN(C)CC1 [Vandetanib] + CC(=O)Nc1cccc(-n2c(=O)n(C3CC3)c(=O)c3c(Nc4ccc(I)cc4F)n(C)c(=O)c(C)c32)c1 [Trametinib] (partner 0.02 µM)
The gist of the method: as §1

As for LK-2, the relative viability in the assay with CUDC-101 + OSI-027 (first compound 0.01 µM) worked out at 0.217; with CUDC-101 + OSI-027 (first compound 0.03162 µM), 0.212; with CUDC-101 + OSI-027 (first compound 0.1 µM) it was 0.201; with CUDC-101 + OSI-027 (first compound 0.3162 µM), 0.203; with CUDC-101 + OSI-027 (first compound 1 µM) it was 0.15; in assay [1] (first compound 0.005 µM), 0.206. Besides, the relative viability is 0.181 in assay [1] (first compound 0.01581 µM); 0.209 in assay [1] (first compound 0.05 µM); 0.176 in assay [1] (first compound 0.1581 µM); 0.194 in assay [1] (first compound 0.5 µM); 0.777 with NVP-TAE684 + Navitoclax (first compound 0.2 µM); 0.449 in the assay with NVP-TAE684 + Navitoclax (first compound 2 µM). Also, the relative viability is 0.753 with Vandetanib + Trametinib (first compound 0.02 µM); 0.829 with Vandetanib + Trametinib (first compound 0.06325 µM); 0.82 in the assay with Vandetanib + Trametinib (first compound 0.2 µM); 0.62 with Vandetanib + Trametinib (first compound 0.6325 µM); 0.724 with Vandetanib + Trametinib (first compound 2 µM).

In the case of NCI-H520, the relative viability came out at 0.218 with CUDC-101 + OSI-027 (first compound 0.01 µM); 0.281 with CUDC-101 + OSI-027 (first compound 0.03162 µM); 0.327 with CUDC-101 + OSI-027 (first compound 0.1 µM); 0.256 in the assay with CUDC-101 + OSI-027 (first compound 0.3162 µM); 0.191 with CUDC-101 + OSI-027 (first compound 1 µM); 0.237 in assay [1] (first compound 0.005 µM). Also, the relative viability is 0.201 in assay [1] (first compound 0.01581 µM); 0.214 in assay [1] (first compound 0.05 µM); 0.224 in assay [1] (first compound 0.1581 µM); 0.198 in assay [1] (first compound 0.5 µM); 1.11 in the assay with NVP-TAE684 + Navitoclax (first compound 0.2 µM); 1.13 in the assay with NVP-TAE684 + Navitoclax (first compound 0.6325 µM). Besides, the relative viability was 0.357 in the assay with NVP-TAE684 + Navitoclax (first compound 2 µM); 0.627 with Vandetanib + Trametinib (first compound 0.02 µM); 0.642 with Vandetanib + Trametinib (first compound 0.06325 µM); 0.577 with Vandetanib + Trametinib (first compound 0.2 µM); 0.687 in the assay with Vandetanib + Trametinib (first compound 0.6325 µM); 0.68 with Vandetanib + Trametinib (first compound 2 µM).

In the case of NCI-H1975, the relative viability in the assay with CUDC-101 + OSI-027 (first compound 0.01 µM) came out at 0.658; with CUDC-101 + OSI-027 (first compound 0.03162 µM), 0.75; with CUDC-101 + OSI-027 (first compound 0.1 µM), 0.728; in the assay with CUDC-101 + OSI-027 (first compound 0.3162 µM), 0.813; with CUDC-101 + OSI-027 (first compound 1 µM), 0.698; in assay [1] (first compound 0.01581 µM), 0.202. Moreover, the relative viability in assay [1] (first compound 0.05 µM) came to 0.246; in assay [1] (first compound 0.1581 µM), 0.171; in assay [1] (first compound 0.5 µM), 0.225; in the assay with NVP-TAE684 + Navitoclax (first compound 0.2 µM), 1.06; in the assay with NVP-TAE684 + Navitoclax (first compound 2 µM), 0.513; with Vandetanib + Trametinib (first compound 0.02 µM), 0.356. Further, the relative viability with Vandetanib + Trametinib (first compound 0.06325 µM) was found to be 0.344; with Vandetanib + Trametinib (first compound 0.2 µM), 0.378; with Vandetanib + Trametinib (first compound 0.6325 µM) it was 0.35; with Vandetanib + Trametinib (first compound 2 µM) it was 0.365.

Values taken from the supplement of paper PMC10307832.
